Assay: xn = mol fraction of the nth substance listed
Conditions: 101.3 kPa, Liquid

CC1CCCO1 (stereo unspecified) [2-methyltetrahydrofuran] + CCCCO
Conditions	kinematic viscosity, 298.15 K [m2/s]	kinematic viscosity, 313.15 K [m2/s]	mass density, 298.15 K [kg/m3]	mass density, 313.15 K [kg/m3]
x2 = 0	5.59e-07	4.92e-07	849.28	834.01
x2 = 0.0488	5.91e-07	5.11e-07	847.62	832.35
x2 = 0.1039	6.22e-07	5.35e-07	845.56	830.5
x2 = 0.205	6.93e-07	5.88e-07	841.78	827.07
x2 = 0.3006	7.7e-07	6.52e-07	838.03	823.64
x2 = 0.4051	8.81e-07	7.34e-07	833.86	820
x2 = 0.5099	1.05e-06	8.41e-07	829.37	815.98
x2 = 0.6036	1.21e-06	9.69e-07	825.28	812.07
x2 = 0.7034	1.47e-06	1.16e-06	820.68	807.96
x2 = 0.8042	1.84e-06	1.39e-06	815.8	803.45
x2 = 0.906	2.4e-06	1.76e-06	810.56	798.76
x2 = 0.9582	2.8e-06	1.99e-06	807.81	796.23

CCC(C)O (stereo unspecified) [butan-2-ol] + CC1CCCO1
x1 = 1
Conditions	kinematic viscosity [m2/s]	mass density [kg/m3]
298.15 K	3.73e-06	802.25
313.15 K	2.24e-06	789.44

CC(C)(C)Cl [2-chloro-2-methylpropane] + CC1CCCO1
298.15 K
Conditions	kinematic viscosity [m2/s]	mass density [kg/m3]
x1 = 0.0481	5.59e-07	849.09
x1 = 0.0972	5.57e-07	848.97
x1 = 0.196	5.55e-07	848.4
x1 = 0.2907	5.55e-07	847.61
x1 = 0.3874	5.54e-07	846.54
x1 = 0.4878	5.54e-07	845.21
x1 = 0.5888	5.55e-07	843.72
x1 = 0.7	5.57e-07	842.04
x1 = 0.7912	5.59e-07	840.61
x1 = 0.8945	5.62e-07	838.65
x1 = 0.9474	5.63e-07	837.24
x1 = 1	5.66e-07	835.75

CC1CCCO1 (stereo unspecified) [2-methyltetrahydrofuran] + CCC(C)Cl
x2 = 0
Conditions	kinematic viscosity [m2/s]	mass density [kg/m3]
298.15 K	5.59e-07	849.28
313.15 K	4.92e-07	834.01

CC1CCCO1 (stereo unspecified) [2-methyltetrahydrofuran] + CC(C)(C)O
Conditions	kinematic viscosity, 298.15 K [m2/s]	kinematic viscosity, 313.15 K [m2/s]	mass density, 298.15 K [kg/m3]	mass density, 313.15 K [kg/m3]
x2 = 0	5.59e-07	4.92e-07	849.28	834.01
x2 = 0.038	5.81e-07	5.04e-07	846.42	831.02
x2 = 0.0906	6.07e-07	5.27e-07	842.39	826.98
x2 = 0.191	6.72e-07	5.73e-07	835.27	819.77
x2 = 0.3192	7.79e-07	6.49e-07	826.46	811.22
x2 = 0.3935	8.66e-07	7.06e-07	821.4	806.46
x2 = 0.4981	1.03e-06	8.15e-07	814.49	799.58
x2 = 0.5918	1.25e-06	9.49e-07	808.4	793.51
x2 = 0.6972	1.67e-06	1.17e-06	801.38	786.72
x2 = 0.7952	2.2e-06	1.47e-06	795.17	780.27
x2 = 0.8989	3.34e-06	1.97e-06	788.08	773.14
x2 = 0.9532	4.37e-06	2.35e-06	784.19	769.08

CC1CCCO1 (stereo unspecified) [2-methyltetrahydrofuran] + CCC(C)O
Conditions	kinematic viscosity, 298.15 K [m2/s]	kinematic viscosity, 313.15 K [m2/s]	mass density, 298.15 K [kg/m3]	mass density, 313.15 K [kg/m3]
x2 = 0	5.59e-07	4.92e-07	849.28	834.01
x2 = 0.0437	5.66e-07	4.91e-07	847.1	831.74
x2 = 0.0915	6.07e-07	5.06e-07	844.81	829.48
x2 = 0.1968	6.45e-07	5.54e-07	839.74	824.64
x2 = 0.3024	7.16e-07	6.04e-07	834.82	820.02
x2 = 0.3993	8.06e-07	6.7e-07	830.17	815.81
x2 = 0.5051	9.5e-07	7.71e-07	825.31	811.2
x2 = 0.6018	1.11e-06	8.78e-07	820.77	806.88
x2 = 0.6999	1.39e-06	1.05e-06	816.27	802.66
x2 = 0.8077	1.86e-06	1.34e-06	811.31	797.97
x2 = 0.8708	2.26e-06	1.57e-06	808.35	795.28
x2 = 0.9361	2.9e-06	1.86e-06	805.28	792.38

CCCCO [butan-1-ol] + CC1CCCO1
x1 = 1
Conditions	kinematic viscosity [m2/s]	mass density [kg/m3]
298.15 K	3.19e-06	805.56
313.15 K	2.22e-06	794.19

CC1CCCO1 (stereo unspecified) [2-methyltetrahydrofuran] + CC(C)(C)Cl
298.15 K, x2 = 0
Conditions	kinematic viscosity [m2/s]	mass density [kg/m3]
–	5.59e-07	849.28

CC(C)CO [2-methyl-1-propanol] + CC1CCCO1
x1 = 1
Conditions	kinematic viscosity [m2/s]	mass density [kg/m3]
298.15 K	4.25e-06	797.71
313.15 K	2.74e-06	785.89

From the NIST ThermoML archive (doi:10.1021/je030167i)
